Our source for the IC50, inhibited platelet aggregation and inhibition values is patent EP0630366B1, “SUBSTITUTED HETEROCYCLIC DERIVATIVES USEFUL AS PLATELET AGGREGATION INHIBITORS” (G.D. Searle & Co., priority 1991, dated 1993).

The subject of one assay is platelet aggregation. Kind of assay: In-vitro platelet aggregation in PRP (ADP-induced). The class given is cell-based, dogs. To be noted: dog platelet-rich plasma; for pIC50: ADP 50 um final concentration, IC50 by linear regression of the dose response curve. The procedure: Healthy male or female dogs were fasted for 8 hours prior to drawing blood; then 30 ml whole blood was collected using a butterfly needle and 30 cc plastic syringe with 3 ml of 0.129 M buffered sodium citrate (3.8%). The syringe was rotated carefully as blood was drawn to mix the citrate. Platelet-rich plasma (PRP) was prepared by centrifugation at 975 x g for 3.17 minutes at room temperature allowing the centrifuge to coast to a stop without braking. The PRP was removed from the blood with a plastic pipette and placed in a plastic capped, 50 mL Corning conical sterile centrifuge tube which was held at room temperature. Platelet poor plasma (PPP) was prepared by centrifuging the remaining blood at 2000 x g for 15 minutes at room temperature allowing the centrifuge to coast to a stop without braking. The PRP was adjusted with PPP to a count of 2-3 x 10^8 platelets per mL. 400 uL of the PRP preparation and 50 uL of the compounds solution to be tested or saline were preincubated for 1 minute at 37°C in a BioData, Horsham, PA). 50 uL of adenosine 5' diphosphate (ADP) (50 um final concentration) was added to the cuvettes and the aggregation was monitored for 1 minute. All compounds are tested in duplicate. Results are calculated as follows: Percent of control = [(maximal OD minus initial OD of compound) divided by (maximal OD minus initial OD of control saline)] x 100. The % inhibition = 100 - (percent of control).
The compounds tested and their median inhibitory concentrations (IC50) are recorded in Table I. IC50's (dosage at which 50% of platelet aggregation is inhibited) were calculated by linear regression of the dose response curve.

In assay [1] the test system is collagen induced platelet aggregation. In words: Inhibition of ex vivo collagen induced platelet aggregation after administration to dogs. It is filed as in vivo, dogs (Beagles). Particulars: after 24 hours, administered orally to dogs at a dose of 20 mg/kg. The procedure:
The purpose of this assay is to determine the effects of antiplatelet compounds on ex vivo collagen induced platelet aggregation when administered either intravenously or orally to dogs.
Pretreatment (control) blood samples are drawn from either conscious or anesthetized dogs (Beagles) and centrifuged to prepare platelet rich plasma (PRP). Aggregatory response to collagen is measured in a aggregometer and used as Control. Compounds are administered, either intragasterically (either by capsule or stomach tube or intravenously). Blood samples are drawn at predetermined intervals after compound administration, PRP prepared and aggregation to collagen determined. Compound inhibition of aggregation is determined by comparing the aggregation response after compound administration to the pretreatment response. The study is continued for a maximum of 24 hours or until the platelet aggregation returns to control levels. (If aggregation is still inhibited after 7 hours, a blood sample is drawn the following morning and tested.) Duration of activity is determined by the length of time platelet aggregation is inhibited after compound administration.

pIC50: −log10 of the molar value.

Regarding “β-[[4-[[4-(aminoiminomethyl)phenyl]amino]-1,4-dioxobutyl]amino]-2-thiophenepropanoic acid [Example 18]”, in the assay on platelet aggregation, the pIC50 was 6.92.

Consider `N=C(N)c1ccc(NC(=O)CCC(=O)NC(CC(=O)O)c2ccccn2)cc1` (stereo not drawn) [Example 8], for which the pIC50 in the assay with platelet aggregation (Canis lupus familiaris) is 6.54.

Turning to “β-[[4-[[3-(aminoiminomethyl)phenyl]amino]-1,5-dioxopentyl]amino]-3-pyridinepropanoic acid [Example 3]”, in the assay on platelet aggregation, the pIC50 is under 5.00.

“β-[[4-[[4-(aminoiminomethyl)phenyl]amino]-1,4-dioxobutyl]amino]-1,3-benzodioxole-5-propanoic acid [Example 33]” gave a pIC50 in the assay on platelet aggregation of 5.17.

In the assay on platelet aggregation, “(±) [[[4-[[4-(aminoiminomethyl)phenyl]-amino]-1,4-dioxo-(2E)-butenyl]amino]-3-pyridinepropanoic acid [Example 29]” showed a pIC50 of 6.96.

As for `N=C(N)c1ccc(NC(=O)CCC(=O)NC(CC(=O)O)c2ccc3c(c2)OCO3)cc1` (stereo not drawn) [Example 20, β-[[4-[[4-(aminoiminomethyl)phenyl]amino]-1,4-dioxobutyl]amino]-1,3-benzodioxole-5-propanoic acid], the pIC50 in the assay with platelet aggregation (Canis lupus familiaris) is 7.17.

In the case of `N=C(N)c1ccc(NC(=O)CCC(=O)NC(CC(=O)O)c2ccncc2)cc1` (stereo not drawn) [Example 10], the pIC50 with platelet aggregation (Canis lupus familiaris) was 6.80.

Take `N=C(N)c1ccc(NC(=O)CCC(=O)NC(CC(=O)O)c2cncnc2)cc1` (stereo not drawn) [Example 22]: in the assay on platelet aggregation (Canis lupus familiaris), the pIC50 was 7.23.

For `N=C(N)c1ccc(NC(=O)C2CC2C(=O)NC(CC(=O)O)c2cccnc2)cc1` (single isomer, unassigned; isomer 2) [Example 27], in the assay on platelet aggregation (Canis lupus familiaris), the pIC50 was under 5.00.

For the molecule `N=C(N)c1ccc(NC(=O)CCC(=O)N[C@@H](CC(=O)O)c2cccnc2)cc1` [Example 5, βS-[[4-[[4-(aminoiminomethyl)phenyl]amino]-1,4-dioxobutyl]amino]-3-pyridinepropanoic acid], in the assay on platelet aggregation (Canis lupus familiaris), the pIC50 is 7.33.

Regarding “Ethyl-β-[[4-[[4-(aminoiminomethyl)phenyl] amino]-1,4-dioxobutyl]amino]-3-pyridinepropanoate [Example 1]”, the inhibited platelet aggregation entry in assay [1] was “up to 100%”.

On to `N=C(N)c1ccc(NC(=O)CCC(=O)NC(CC(=O)O)c2cccnc2)cc1` (racemic) [Example 2, D,L-β-[[4-[[4-(aminoiminomethyl)phenyl]amino]-1,4-dioxobutyl]amino]-3-pyridinepropanoic acid], for which the pIC50 with platelet aggregation (Canis lupus familiaris) was 7.03.

Turning to `CCOC(=O)C[C@H](NC(=O)CCC(=O)Nc1ccc(C(=N)N)cc1)c1cccnc1` [Example 4, Ethyl βS-[[4-[[4-(aminoiminomethyl)phenyl]amino]-1,4-dioxobutyl]amino]-3-pyridinepropanoate], in assay [1], the inhibited platelet aggregation entry is given as “up to 100%”.

The molecule `N=C(N)c1ccc(NC(=O)CCC(=O)NC(CC(=O)O)c2cc3c(cc2[N+](=O)[O-])OCO3)cc1` (stereo not drawn) [Example 34] showed a pIC50 in the assay with platelet aggregation (Canis lupus familiaris) of 5.92.

As to “Ethyl β-[[4-[[4-(aminoiminomethyl)phenyl]amino]1,4-dioxobutyl]amino]-1,3-benzodioxole-5-propanoate (isomer 1) [Example 31]”, in the assay with platelet aggregation, the negative-log IC50 (pIC50) is 5.14.

In the assay with platelet aggregation (Canis lupus familiaris), `CCOC(=O)CC(NC(=O)CCC(=O)Nc1ccc(C(=N)N)cc1)c1cc2c(cc1[N+](=O)[O-])OCO2` (stereo not drawn) [Example 21] showed a pIC50 of under 5.00.

Molecule “Ethyl β-[[4-[[4-aminoiminomethyl) phenyl]amino]-1,4-dioxobutyl]amino]-1,3-benzodioxole-5-propanoate [Example 19]” gave a pIC50 in the assay with platelet aggregation of under 5.00.

Consider “(±)-1[[[4-[[4-(aminoiminomethyl)phenyl]amino]-1,4-dioxo-(2Z)-butenyl]amino]-3-pyridinepropanoic acid [Example 30]”, for which, in the assay on platelet aggregation, the pIC50 is under 5.00.

In the case of “βR-[[4-[[4-(aminoiminomethyl)phenyl]amino]-1,4-dioxobutyl]amino]-3-pyridinepropanoic acid [Example 7]”, in the assay on platelet aggregation, the pIC50 is 5.32.

For the molecule “β-[[4-[[4-(aminoiminomethyl)phenyl]amino]-1,4-dioxobutyl]amino]-2-furanpropanoic acid [Example 16]”, in assay [1], the inhibited platelet aggregation result was “up to 100%”.

Take `N=C(N)c1ccc(NC(=O)C2CCCCC2C(=O)NC(CC(=O)O)c2cccnc2)cc1` (stereo not drawn) [Example 14]: the inhibition at 10 µM with platelet aggregation (Canis lupus familiaris, at 10^-5, ADP-induced aggregation, read-out: Dog PRP IC50 (cell prints inhibition at a single concentration)) stood at 0%.

The pIC50 is the IC50 on a negative log10 scale, so that one unit is a factor of ten. The low end stands for a high IC50, the high end for a low IC50.
